Laboratory results published in article PMC5108240 (ACS infectious diseases, 2016).
≈ marks a conversion by molar mass, not a printed value.

Key:
[1] = system: K. pneumoniae (ATCC 10031); experiment: microbe, parasite or virus in culture; type: cell-based; conditions: Klebsiella pneumoniae, ATCC10031, read-out: MIC in the presence of thymidine
[2] = target: K. pneumoniae DHFR (Klebsiella pneumoniae, UniProt A6T4I4); experiment: biochemical
[3] = system: E. coli (ATCC 25922); type: cell-based
[4] = system: K. pneumoniae (ATCC 10031); type: cell-based, Klebsiella pneumoniae

Structure (SMILES): COc1cc(Cc2cnc(N)nc2N)cc(OC)c1OC [TMP, trimethoprim]
- MIC [1]: > 20 µg/mL
- IC50 [2]: 106 ± 6 nM
- Time-kill: bacteriostatic or bactericidal [3]: bacteriostatic
- MIC Kp [4]: 0.0781 µg/mL (≈ 0.269 µM)
